In patent US8318761B2, “Substituted arylsulfonamides as antiviral agents” (Aicuris GmbH & Co. KG, priority 2006, dated 2012):

Key:
HCMV = assay: Anti-HCMV cytopathogenicity test (CPE inhibition); format: cell-based, human cytomegalovirus; conditions: for EC50: Human betaherpesvirus 5, 144 h, HCMV-infected NHDF cells, M.O.I. 0.001-0.003, 6 days, inhibition of CPE by 50%; for SI HCMV: selectivity index = CC50 (NHDF)/EC50 (HCMV)
Description: (§1) Anti-HCMV (Anti-Human Cytomegalovirus) Cytopathogenicity Tests The test compounds are employed as 50 millimolar (mM) solutions in dimethyl sulfoxide (DMSO). Ganciclovir® serves as reference compound. After the addition of 2 μl of the 50, 5, 0.5 and 0.05 mM DMSO stock solutions respectively to 98 μl portions of cell culture medium in row […] for duplicate determinations, 1:2 dilutions are carried out with 50 μl portions of medium up to row 11 of the 96-well plate. The wells in rows 1 and 12 each contain 50 μl of medium. 150 μl of a suspension of 1×10^4 cells (human prepuce fibroblasts [NHDF]) are then pipetted into each of the wells (row 1=cell control) and, in rows 2-12, a mixture of HCMV-infected and uninfected NHDF cells (M.O.I.=0.001-0.003), i.e. 1-3 infected cells per 1000 uninfected cells. Row 12 (without substance) serves as virus control. The final test concentrations are […]. The plates are incubated at 37° C./5% CO2 for 6 days, i.e. until all the cells in the virus controls are infected (100% cytopathogenic effect [CPE]). The wells are then fixed and stained by the addition of a mixture of formalin and Giemsa's dye (30 min), washed with bidistilled water and dried in a drying oven at 50° C. The plates are then assessed visually using an overhead microscope (plaque multiplier from Technomara). The following data can be obtained from the test plates: EC50 (HCMV)=substance concentration in MM which inhibits the CPE (cytopathic effect) by 50% in comparison with the untreated virus control; SI (selectivity index)=CC50 (NHDF)/EC50 (HCMV).

[1] = Anti-HCMV cytopathogenicity test, cytostatic effect on uninfected cells; format: cell-based; conditions: human, NHDF cells (human prepuce fibroblasts), 6 days incubation, visual assessment
Description: as §1, with “plates: CC50 (NHDF)=substance” for “plates: EC50 (HCMV)=substance”, “MM at” for “MM”, “which no visible cytostatic effects on” for “which inhibits”, “the cells are evident” for “the CPE (cytopathic effect) by 50%”, “untreated cell” for “untreated virus”, “control;” for “control; SI (selectivity index)=CC50 (NHDF)/EC50 (HCMV).”

[2] = Pharmacokinetical investigations after intravenous or oral administration; format: in vivo; conditions: male Wistar rat
Description: Pharmacokinetical Investigations
The pharmacokinetics of the active substances are investigated after intravenous or oral administration of doses in the range from 1 mg/kg intravenously and 3 mg/kg orally to three male Wistar rats per administration route. In order to make a repeated removal of blood possible a catheter is implanted into the jugular vein of the animals on the day before the experiment. The substances are administered intravenously as well as orally as a solution. Thereby, in most cases a plasma formulation (rat plasma with 1-2% ethanol or DMSO, 2 ml/kg) is used for the intravenous administration and a PEG formulation (10% ethanol, 40% PEG 400, 50% water, 5 ml/kg) is used for the oral administration.
After the administration of the active substance blood samples are collected over 24 h via the catheter into heparin-containing sample tubes. Subsequently to the removal of blood the blood samples are centrifuged and the plasma supernatant is pipetted into Eppendorf tubes. The plasma samples are stored at least −15° C. until the analysis takes place.
For the work-up the samples are thawed. The plasma proteins are subsequently precipitated by the addition of acetonitrile which comprises an internal standard. As internal standard a substance from the same structural class is selected which is structurally as similar as possible to the active compound. For the preparation of calibration samples different concentrations of the active substance are added to aliquots of empty plasma and these are worked up together with the unknown samples. Additionally quality control samples with three different concentrations are prepared which serve to validate the analytical procedure.
The determination of the active substance in the samples takes place by high performance liquid chromatography with mass spectrometrical detection (LC/MS-MS). The active substance concentrations in the unknown samples are determined based on their relative peak heights or areas compared to the calibration curve using the program Concalc for Windows (CCW, Integrierte Labordatensysteme, version 2.5 or later, Bayer AG). Subsequently, the pharmacokinetical parameters are calculated from the plasma concentration development over time individualized to an animal using non-compartimental analysis with the aid of the program KINCALC, version 2.50.02 (Bayer AG, 2001).
The following data can be acquired from these tests:
AUC=total area under the drug-concentration over time curve;
Cmax=maximum concentration;

[3] = 3 mg/kg p.o., solution in 10% ethanol, 40% PEG 400, 50% water, 5 ml/kg

| SMILES | EC50 (HCMV) [µM] | half-life ([2]; iv, 1.3 mg/kg i.v., solution in rat plasma with 1% DMSO, 2 ml/kg) [h] | clearance ([2]; iv, 1.3 mg/kg i.v., solution in rat plasma with 1% DMSO, 2 ml/kg, read-out: CLPlasma (converted)) [mL/min/kg] | Vd ([2]; iv, 1.3 mg/kg i.v., solution in rat plasma with 1% DMSO, 2 ml/kg, read-out: Vss) [L/kg] | CLBlood ([2]; 1.3 mg/kg i.v., solution in rat plasma with 1% DMSO, 2 ml/kg) [mL/min/kg] | AUCnorm, p.o. [2, 3] [kg·h/L] | Cmax, norm, p.o. [2, 3] [kg/L] | bioavailability ([2]; plasma, po, 3 mg/kg p.o., solution in 10% ethanol, 40% PEG 400, 50% water, 5 ml/kg, read-out: F (bioavailability)) [%] | SI HCMV (HCMV) | CC50 at 6 days [1] [µM] |
| --- | --- | --- | --- | --- | --- | --- | --- | --- | --- | --- |
| Cc1c(NC(=O)C2(C#N)CC2)cccc1NS(=O)(=O)c1ccc(-c2noc(-c3cccc(N)n3)n2)cc1 [Example 3, N-{3-[({4-[5-(6-Aminopyridin-2-yl)-1,2,4-oxadiazol-3-yl]phenyl}sulfonyl)amino]-2-methylphenyl}-1-cyanocyclopropanecarboxamide] | 0.002 |  |  |  |  |  |  |  | 51000 | 102 |
| Cl.N#CC1(C(=O)Nc2cccc(NS(=O)(=O)c3ccc(C#Cc4cccc(N)n4)cc3)c2)CC1 [Example 4, N-{3-[({4-[(6-Aminopyridin-2-yl)ethynyl]phenyl}sulfonyl)amino]phenyl}-1-cyanocyclopropanecarboxamide Hydrochloride] | 0.021 |  |  |  |  |  |  |  | 2240 | 47 |

The next lines start with results.

| EC50 (HCMV) [µM] | half-life ([2]; iv, 1.3 mg/kg i.v., solution in rat plasma with 1% DMSO, 2 ml/kg) [h] | clearance ([2]; iv, 1.3 mg/kg i.v., solution in rat plasma with 1% DMSO, 2 ml/kg, read-out: CLPlasma (converted)) [mL/min/kg] | Vd ([2]; iv, 1.3 mg/kg i.v., solution in rat plasma with 1% DMSO, 2 ml/kg, read-out: Vss) [L/kg] | CLBlood ([2]; 1.3 mg/kg i.v., solution in rat plasma with 1% DMSO, 2 ml/kg) [mL/min/kg] | AUCnorm, p.o. [2, 3] [kg·h/L] | Cmax, norm, p.o. [2, 3] [kg/L] | bioavailability ([2]; plasma, po, 3 mg/kg p.o., solution in 10% ethanol, 40% PEG 400, 50% water, 5 ml/kg, read-out: F (bioavailability)) [%] | SMILES | SI HCMV (HCMV) | CC50 at 6 days [1] [µM] |
| --- | --- | --- | --- | --- | --- | --- | --- | --- | --- | --- |
| 0.007 |  |  |  |  |  |  |  | N#CC1(C(=O)Nc2cccc(NS(=O)(=O)c3ccc(-c4noc(-c5cccc(N)n5)n4)cc3)c2)CC1 [Example 2, N-{3-[({4-[5-(6-Aminopyridin-2-yl)-1,2,4-oxadiazol-3-yl]phenyl}sulfonyl)amino]phenyl}-1-cyanocyclopropanecarboxamide] | 20140 | 141 |
| 0.011 | 4.26 | 1.07 | 0.321 | 2.13 | 8.58 | 1.08 | 55.3 | N#CC1(C(=O)Nc2cc(F)cc(NS(=O)(=O)c3ccc(-c4noc(-c5cccc(N)n5)n4)cc3)c2)CC1 [Example 1, N-{3-[({4-[5-(6-Aminopyridin-2-yl)-1,2,4-oxadiazol-3-yl]phenyl}sulfonyl)amino]-5-fluorophenyl}-1-cyanocyclopropanecarboxamide] | 6450 | 71 |
| 0.026 |  |  |  |  |  |  |  | CC(=O)Nc1cccc(-c2nc(-c3ccc(S(=O)(=O)Nc4cc(F)cc(NC(=O)C5(C#N)CC5)c4)cc3)no2)n1 [Example 5, N-{3-[({4-[5-(6-Acetylaminopyridin-2-yl)-1,2,4-oxadiazol-3-yl]phenyl}sulfonyl)amino]-5-fluorophenyl}-1-cyanocyclopropanecarboxamide] | 2730 | 71 |
